Assay results published in the supplement of paper PMC10307832.

Tests used:
Assay in all cases: relative viability (nuclei count vs DMSO), 5 days (fraction); higher = more cells survive
VE-821 = compound: CS(=O)(=O)c1ccc(-c2cnc(N)c(C(=O)Nc3ccccc3)n2)cc1 [VE-821]
How it was run: (§1)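 Viability here means nuclei in treated wells divided by nuclei in vehicle wells, reported as the median across plates. Only plates with control CV below 25% and at least one doubling passed. Lung cancer cell lines in 1536-well plates were exposed to five √10-spaced library-drug doses for 5 days and counted from 4× Hoechst images in MetaXpress.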

Vismodegib = compound: CS(=O)(=O)c1ccc(C(=O)Nc2ccc(Cl)c(-c3ccccn3)c2)c(Cl)c1 [Vismodegib]
How it was run: as §1

Ruxolitinib = compound: N#CC[C@H](C1CCCC1)n1cc(-c2ncnc3[nH]ccc23)cn1 [Ruxolitinib]
How it was run: as §1

Vismodegib + Dasatinib = compound: CS(=O)(=O)c1ccc(C(=O)Nc2ccc(Cl)c(-c3ccccn3)c2)c(Cl)c1 [Vismodegib] + Cc1nc(Nc2ncc(C(=O)Nc3c(C)cccc3Cl)s2)cc(N2CCN(CCO)CC2)n1 [Dasatinib] (partner 0.075 µM)
How it was run: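 Lung cancer cell lines in 1536-well plates were dosed by pin tool the day after seeding, either with one drug alone or with a fixed anchor-drug dose plus five library-drug doses (not always all listed) in √10 steps. After 5 days, cells were fixed and their nuclei stained in one step (final 0.05% Triton X-100, 1% formaldehyde, 1 ug/ml Hoechst), then counted on 4× images. Relative viability is the nuclei count in treated wells divided by that in vehicle wells. Values are medians of duplicate plates.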

| Cell Line | relative viability (VE-821; 0.08 µM) | relative viability (VE-821; 0.253 µM) | relative viability (VE-821; 0.8 µM) | relative viability (VE-821; 2.53 µM) | relative viability (VE-821; 8 µM) | relative viability (Vismodegib; 0.08 µM) | relative viability (Vismodegib; 0.253 µM) | relative viability (Vismodegib; 0.8 µM) | relative viability (Vismodegib; 2.53 µM) | relative viability (Vismodegib; 8 µM) | relative viability (Ruxolitinib; 0.08 µM) | relative viability (Ruxolitinib; 0.253 µM) | relative viability (Ruxolitinib; 0.8 µM) | relative viability (Ruxolitinib; 2.53 µM) | relative viability (Ruxolitinib; 8 µM) | relative viability (Vismodegib + Dasatinib; first compound 0.08 µM) | relative viability (Vismodegib + Dasatinib; first compound 0.253 µM) | relative viability (Vismodegib + Dasatinib; first compound 0.8 µM) | relative viability (Vismodegib + Dasatinib; first compound 2.53 µM) | relative viability (Vismodegib + Dasatinib; first compound 8 µM) |
| --- | --- | --- | --- | --- | --- | --- | --- | --- | --- | --- | --- | --- | --- | --- | --- | --- | --- | --- | --- | --- |
| HCC-44 | 1 | 0.962 | 1.06 | 1.04 | 1.04 | 1.01 | 0.94 | 0.938 | 0.934 | 1.01 | 0.958 | 0.939 | 1.04 | 1.02 | 0.843 |  |  |  |  |  |
| HCC-78 | 1.1 | 0.863 | 0.887 | 1.04 | 0.756 | 0.82 | 0.914 | 0.875 | 0.902 | 0.865 | 0.831 | 0.717 | 0.869 | 0.853 | 0.743 | 0.32 | 0.33 | 0.363 | 0.475 | 0.351 |
| HCC-366 | 1.06 | 1.01 | 0.85 | 0.925 | 0.191 | 0.997 | 1.04 | 0.998 | 0.984 | 1 | 1.07 | 0.984 | 1.05 | 1.03 | 0.932 | 0.816 | 0.587 | 0.622 | 0.693 | 0.692 |
| HCC-827 | 1.06 | 1.02 | 1.1 | 1.06 | 1.04 | 1.04 | 1.01 | 1.04 | 1.03 | 1.03 |  | 1.01 | 0.891 | 0.859 | 0.901 | 0.361 | 0.263 | 0.297 | 0.268 | 0.293 |
| HOP-62 | 1.11 | 0.997 | 1.02 | 1.18 | 1.02 | 0.998 | 0.954 | 0.94 | 0.96 | 1 | 0.976 | 1.04 | 1.09 | 1.05 | 0.972 | 0.663 | 0.694 | 0.609 | 0.683 | 0.683 |
| IA-LM | 1.02 | 0.874 | 0.999 | 1.06 | 0.808 | 0.883 | 0.963 | 0.964 | 0.85 | 0.876 | 0.855 | 1.02 | 1.08 | 1.05 | 0.888 |  |  |  |  |  |
| LC-2-ad | 1.07 | 0.978 | 1.05 | 1.12 | 0.995 | 1 | 0.952 | 0.939 | 0.929 | 0.907 | 0.779 | 0.971 | 1.01 | 0.842 | 0.665 | 0.677 | 0.568 | 0.467 | 0.482 | 0.557 |
| LCLC-97TM1 | 1 | 0.964 | 0.969 | 1.13 | 0.703 | 1 | 0.984 | 0.904 | 0.802 | 0.979 | 0.895 | 0.852 | 0.826 | 0.892 | 0.949 | 0.855 | 0.755 | 0.617 | 0.856 | 0.834 |
| LCLC-103H | 1.07 | 0.915 | 0.952 | 1.21 | 0.891 | 0.967 | 1.04 | 0.92 | 1.01 | 1.02 | 1.04 | 1.01 | 0.993 | 1.05 | 0.956 | 0.579 | 0.517 | 0.471 | 0.4 | 0.458 |
| LK-2 | 1.26 | 0.911 | 0.993 | 1.02 | 0.881 | 1 | 0.842 | 0.861 | 1.02 | 0.899 | 0.928 | 0.949 | 1.13 | 1.02 | 1.09 | 0.316 | 0.355 | 0.325 | 0.255 | 0.376 |
| LOU-NH91 | 1.03 | 0.946 | 0.927 | 1.03 | 0.865 | 0.918 | 0.963 | 0.946 | 0.908 | 0.958 | 0.847 | 0.957 | 1.03 | 0.933 | 0.99 | 0.55 | 0.554 | 0.526 | 0.547 | 0.511 |
| LU99A | 0.987 | 1.01 | 0.962 | 0.998 | 0.464 | 0.989 | 0.899 | 0.964 | 0.819 | 0.922 | 1.06 | 0.997 | 1.08 | 0.816 | 0.777 | 0.401 | 0.507 | 0.546 | 0.509 | 0.708 |
| LXF-289 | 1.06 | 1.1 | 1.09 | 1.06 | 1.14 | 1.02 | 0.989 | 1.03 | 0.988 | 0.902 | 0.965 | 0.996 | 0.938 | 0.944 | 0.919 | 0.237 | 0.214 | 0.202 | 0.286 | 0.26 |
| NCI-H23 | 1.03 | 0.888 | 0.983 | 0.818 | 0.319 | 1.05 | 0.931 | 0.886 | 0.926 | 0.773 | 1.04 | 1.01 | 0.995 | 0.84 | 0.772 | 0.81 | 0.825 | 0.73 | 0.838 | 0.754 |
| NCI-H322M | 0.96 | 0.912 | 0.96 | 0.864 | 0.371 | 0.912 | 0.896 | 0.932 | 0.868 | 0.88 | 0.934 | 0.962 | 1.04 | 1.27 | 1.36 | 0.244 | 0.25 | 0.243 | 0.245 | 0.255 |
| NCI-H1299 | 1.02 | 0.971 | 0.987 | 0.997 | 0.941 | 1.04 | 0.973 | 1.02 | 1.03 | 1.02 | 1.04 | 1.01 | 1.01 | 0.974 | 0.866 |  |  |  |  |  |
| NCI-H1648 | 1.21 | 0.787 | 0.876 | 0.946 | 0.674 | 1 | 0.893 | 0.766 | 0.987 | 0.74 | 0.644 | 1.02 | 1.11 | 1.25 | 1.49 |  |  |  |  |  |
| NCI-H1703 | 1.09 | 0.793 | 0.836 | 0.689 | 0.444 | 0.998 | 0.826 | 1.21 | 0.824 | 1.33 | 0.994 | 0.862 | 0.978 | 0.498 | 0.663 |  |  |  |  |  |
